Source: publication PMC8347134, “Preparation of Antiproliferative Terpene-Alkaloid Hybrids by Free Radical-Mediated Modification of ent-Kauranic Derivatives” (Molecules, 2021)
Like-named read-outs stand apart in the source and are kept apart here.

Assays:
Format in all cases: cell-based
hTERT RPE-1 = assay: Parallel cytotoxicity assay on non-cancerous retina cells
Protocol: (§1) A parallel cytotoxicity assay was performed on non-cancerous retina cells (hTERT RPE-1) in order to estimate the selectivity of the investigated compounds towards tumor cells. The inhibition of cell proliferation was calculated as IC50 by interpolation based on the semi-log dose response.
(§2) All cell lines were cultured as recommended by the suppliers. Culture media were purchased from Gibco Life Technologies, USA, and supplemented with 10% fetal bovine serum (HyClone, GE Healthcare Life Sciences, Logan, UT, USA). […] All stock solutions were prepared in DMSO.
(§3) After overnight incubation, cells were treated with the test compounds at seven different concentrations ranging from 100 to 6.4 × 10^−3 µM. […] The plates were incubated at 37 °C and monitored for 72 h in an IncuCyte® device (Essen BioScience Inc., Ann Arbor, MI, USA) for real-time imaging. Images were taken every 3 h, with one field imaged per well under 10× magnification. Cell growth was then quantified based on the percent cellular confluence as analysed by the IncuCyte® image analysis software and used to calculate IC50 values by linear interpolation. All tests have been performed in duplicate and the average values have been calculated.

[1] = system: Capan-1 (pancreatic adenocarcinoma); assay: Cell proliferation assay (IncuCyte); conditions: for IC50: Homo sapiens, CAPAN-1, 72 h; for SI Capan-1: ratio IC50 hTERT RPE-1 / IC50 Capan-1
Protocol: as §1, §2, §3

[2] = system: DND-41 (acute lymphoblastic leukemia); assay: Cell proliferation assay (IncuCyte); conditions: for IC50: DND41, 72 h; for SI DND-41: ratio IC50 hTERT RPE-1 / IC50 DND-41
Protocol: as §1, §2, §3

[3] = system: HCT-116 (colorectal carcinoma); assay: Cell proliferation assay (IncuCyte); conditions: for IC50: Homo sapiens, HCT-116, 72 h; for SI HCT-116: ratio IC50 hTERT RPE-1 / IC50 HCT-116
Protocol: as §1, §2, §3

[4] = system: HL-60 (acute myeloid leukemia); assay: Cell proliferation assay (IncuCyte); conditions: Homo sapiens, HL-60, 72 h
Protocol: as §1, §2, §3

[5] = system: K-562 (chronic myeloid leukemia); assay: Cell proliferation assay (IncuCyte); conditions: Homo sapiens, K562, 72 h
Protocol: as §1, §2, §3

[6] = system: NCI-H460 (lung carcinoma); assay: Cell proliferation assay (IncuCyte); conditions: for IC50: Homo sapiens, NCI-H460, 72 h; for SI NCI-H460: ratio IC50 hTERT RPE-1 / IC50 NCI-H460
Protocol: as §1, §2, §3

[7] = system: Z-138 (non-Hodgkin lymphoma); assay: Cell proliferation assay (IncuCyte); conditions: for IC50: Homo sapiens, Z-138, 72 h; for SI Z-138: ratio IC50 hTERT RPE-1 / IC50 Z-138
Protocol: as §1, §2, §3

[8] = system: seven different tumor cell lines; assay: Proliferation assays, best value over the seven tumor cell lines; conditions: for SImax: highest selectivity index over the tumor cell lines (Figure 4); for IC50 for retina (hTERT RPE-1) cells fold higher than for cancerous cells: highest selectivity indices
Protocol: as §1, §2, §3

[9] = hTERT-RPE1, 72 h, duplicate, mean ± deviation
[10] = lowest IC50 over the tumor cell lines (Figure 4), read-out: IC50 min

| Compound | IC50 (hTERT RPE-1; [9]) [µM] | IC50 ([1]; duplicate, mean ± deviation) [µM] | SI Capan-1 [1] | IC50 ([2]; duplicate, mean ± deviation) [µM] | IC50 ([3]; duplicate, mean ± deviation) [µM] | SI HCT-116 [3] | IC50 ([4]; duplicate, mean ± deviation) [µM] | IC50 ([5]; duplicate, mean ± deviation) [µM] | IC50 ([6]; duplicate, mean ± deviation) [µM] | SI NCI-H460 [6] | IC50 ([7]; duplicate, mean ± deviation) [µM] | SImax [8] | IC50 [8, 10] [µM] | also measured |
| --- | --- | --- | --- | --- | --- | --- | --- | --- | --- | --- | --- | --- | --- | --- |
| COC(=O)[C@]1(C)CCC[C@@]2(C)[C@@H]3CC[C@@H]4C[C@@]3(CC[C@@H]21)[C@H]1OC(=O)CC=C41 [Compound 22] | 1.4 ± 0.1 | 1.3 ± 0.6 | 1.1 | 2.3 ± 0.3 | 0.5 ± 0.2 | 2.8 | 3.7 ± 1.3 | 2.5 ± 0.1 | 1.4 ± 0.3 | 1 | 2.4 ± 1.1 | – | – | IC50 ([8]; tumor cell lines, read-out: IC50 values): < 1 µM |
| COC(=O)C1(C)CCCC2(C)C1CCC13CC(CCC21)C(CCC(=O)O)(N=[N+]=[N-])C3O (stereo not shown) [Compound 24] | 31.7 ± 3.1 | 33.2 ± 7.6 | – | 38.9 ± 4.1 | 18.8 ± 8 | 1.7 | 49.3 ± 5 | 76.3 ± 1.4 | 41.8 ± 5.3 | – | 25.2 ± 0.3 | – | – | SI Z-138 [7]: 1.3 |
| CC1(C(=O)O)CCCC2(C)C1CCC13CC(CCC21)C(CCC#N)(N=[N+]=[N-])C3O (stereo not shown) [Compound 25] | 33.6 ± 4.5 | 6.4 ± 1.5 | 5.3 | 36.4 ± 9.8 | 34.4 ± 0.5 | – | > 100 | > 100 | 34 ± 2.9 | – | 52 ± 17.4 | 5.3 | 6.4 ± 1.5 | – |
| COC(=O)CCC1(N=[N+]=[N-])C2CCC3C4(C)CCCC(C)(C(=O)OC)C4CCC3(C2)C1O (stereo not shown) [Compound 26] | 25.9 ± 0.3 | 8.3 ± 1.1 | 3.1 | 6.6 ± 1.3 | 9.9 ± 2.7 | 2.6 | 41.1 ± 15.9 | 36.9 ± 0.2 | 0.6 ± 0.2 | 43.2 | 21.6 ± 5.4 | 43.2 | 0.6 ± 0.2 | SI DND-41 [2]: 3.9; SI Z-138 [7]: 1.2; IC50 for retina (hTERT RPE-1) cells fold higher than for cancerous cells [8]: up to 43 fold |
| COC(=O)C1(C)CCCC2(C)C1CCC13CC(CCC21)C1(CCC(=O)N1)C3O (stereo not shown) [Compound 27] | 27.7 ± 4.3 | 3.7 ± 1.7 | 7.5 | 8.3 ± 2 | 4 ± 3.7 | 6.9 | 38 ± 11.8 | 56.5 ± 2.8 | 1.9 ± 0.2 | 14.6 | 39.8 ± 10.9 | 14.6 | 1.9 ± 0.2 | SI DND-41 [2]: 3.3; IC50 for retina (hTERT RPE-1) cells fold higher than for cancerous cells [8]: up to 43 fold |
| CC(=O)O[C@@]12CO[C@@H]1C[C@H](O)[C@@]1(C)C(=O)[C@H](O)C3=C(C)[C@@H](OC(=O)[C@H](O)[C@@H](NC(=O)OC(C)(C)C)c4ccccc4)C[C@@](O)([C@@H](OC(=O)c4ccccc4)[C@H]21)C3(C)C [DT, docetaxel, reference compound] | – | – | – | – | – | – | – | – | – | – | – | – | – | IC50 (hTERT RPE-1; hTERT-RPE1, positive controls, 72 h): 0.0187 ± 0.0048 µM; IC50 ([1]; positive controls): 0.0042 ± 0.0018 µM; IC50 ([2]; positive controls): 0.0047 ± 0.0012 µM; IC50 ([3]; positive controls): 0.0022 ± 0.0008 µM; IC50 ([4]; positive controls): 0.0043 ± 0.0016 µM; IC50 ([5]; positive controls): 0.0052 ± 0.0012 µM; IC50 ([6]; positive controls): 0.0055 ± 0.0013 µM; IC50 ([7]; positive controls): 0.0037 ± 0.0007 µM |
| CN[C@@H]1C[C@H]2O[C@@](C)([C@@H]1OC)n1c3ccccc3c3c4c(c5c6ccccc6n2c5c31)C(=O)NC4 [SP, staurosporine, reference compound] | – | – | – | – | – | – | – | – | – | – | – | – | – | IC50 ([2]; positive controls): 0.0086 ± 0.0015 µM; IC50 ([4]; positive controls): 0.0091 ± 0.0016 µM; IC50 ([5]; positive controls): 0.0279 ± 0.0032 µM; IC50 ([6]; positive controls): 0.0022 ± 0.0008 µM |
